Patent publication US3930838A, “S-benzyl-N,N-disec-butylthiocarbamate and its use as a rice field herbicide and a rice growth stimulant” (priority 1970, dated 1976)
“And” between values parts separate entries of the source, which are not always exact repeats. Equal values may be shown once.

Tests used:
[1] = system: Alopecurus myosiuroides; test: Weeding activity in screening conditions (Example 12); assay type: in vivo; design: scale not given here; conditions: 25 days
Text: (§1) Two sets of small square tanks having 11 cm. sides, filled with field earth admixed with 30% of sand, were sowed at a depth of 0.5-1 cm. with the following grass species: Echinocloa crus galli, Setaria italica, Alopecurus myosiuroides, Lolium italicum, Digitaria sanguinalis, Avena fatua, Agrostis segetum, and Dactylis glomerata. After sowing, the earth surface of the tanks was uniformly sprayed with 2.4 cc./tank of hydroacetone solutions containing, respectively, 0, 0.05, 0.10, 0.20 and 0.30% of M3432 and of molinate, respectively, in order to obtain doses thereof corresponding to 0, 1, 2, 4, and 6 kg./ha., respectively.
(§2) Only one set of small tanks was covered with a 1 cm. layer of earth just after the treatment. All of the tanks were kept in an air-conditioned chamber identical with that described in Example 7, and were watered every day. 25 days after the treatment, the final results were examined, attributing to each treatment the following scale of values: […]

[2] = system: Agrostis segetum; test: as above; assay type: in vivo; design: scale not given here; conditions: 25 days
Text: as §1, §2

[3] = system: Avena fatua; test: as above; assay type: in vivo; design: scale not given here; conditions: 25 days
Text: as §1, §2

[4] = system: rice; test: Further test on rice in submerged culture at high doses (Example 8); assay type: in vivo; conditions: 33 days
Method: Into a set of cylindrical pots having a 200 cm^2 internal surface, sieved rice field earth in a quantity of 1 kg. per pot was introduced. After leveling and wetting with 200 cc. of water, the earth surface of the pots was uniformly sprayed with hydroacetone solutions containing, respectively, 0, 0.2, 0.3, and 0.4% active product (a.p.). 4 Ml. of the solution were sprayed onto each pot, so that the amount of active product in a set of four pots was 0, 4, 6, and 8 kg./ha., respectively. Immediately after spraying, each pot was filled with water to a level of 7 cm. over the soil surface. Thereafter, the sowing was carried out at the rate of 15 pre-germinated rice seeds per pot. Three repetitions were performed for each treatment. The pots were kept in an air-conditioned atmosphere with a daily temperature variation between 10° and 25°C and a 14 hour per day light period. After 24 days, the percentage of sprouted plants and the length of the shoot were recorded.
In view of the foregoing results, a further test was conducted according to the methodology of Example 7. During such test, M3432 was employed in quantities of 10, 20, and 30 kg./ha. The results were gathered 33 days after the treatments.

[5] = Acute oral toxicity, mice; conditions: mouse, in vivo
[6] = Acute oral toxicity, rats; conditions: rat, in vivo, per os
[7] = system: Scirpus sp.; test: Outdoor infestation degree in rice plots (Example 15); assay type: in vivo; conditions: 36 days
Method: (§3) In the province of Novara, Italy, a test was performed outdoors in clay soil. For each treatment, a 600 m^2 plot provided with independent water feed was prepared. After soil working and leveling, the treatment was effected on Apr. 23, 1970, using formulations in emulsifiable oils of M3432 and of molinate, sprayed by means of mechanical devices. Only the plot treated with molinate was harrowed just after treatment in order to incorporate the product and to avoid any losses of same due to volatilization. Immediately afterwards, the plots were flooded to a water level of 10-12 cm.
(§4) A clear confirmation of the efficiency of M3432 towards Echinocloa spp. was obtained outdoors, where the test was carried out under conditions which are characteristic of Italian rice growing. The experimental conditions are described in Example 10.

[8] = system: Echinocloa spp.; test: as above; assay type: in vivo; conditions: for Infestation degree, plants per 10 square meters: 2 months
Method: as §3, §4

[9] = system: Alisma sp.; test: as above; assay type: in vivo; conditions: 36 days
Method: as §3, §4

[10] = system: rice; test: Rice seed treatment, 5000 square meter field plots, test No. 3, rice (Example 17); assay type: in vivo; conditions: 67 days; for Rice tiller dry weight / Rice tiller number: single 1 m^2 testing area
Method: A further test was carried out outdoors on loam soil on plots of about 5000 square meters surface.
After flooding each plot, seeds treated as in Test No. […] In all cases, the seen quantity was 150 kg./ha. 67 days after sowing, the results were gathered on 5 representative testing areas of 1 square meter each for each dosage level.

[11] = system: rice; test: Rice seed surface treatment, pots, test No. 1 (Example 17); assay type: in vivo, rice cv. RIBE; conditions: 41 days
Method: A set of glass pots was prepared as described in Example 7. Immediately after such preparation the pots were filled with water to a level of 7 cm. above the ground surface. Cv. RIBE rice seeds, which were previously allowed to swell in water, were divided into four groups. Each group was treated, by application with a micro syringe with a quantity of M3432 composition; containing 70% active product, corresponding to the following doses of a.p. per ha.: 0, 2.5, 5, and 10 kg. 15 seeds coated with the compound were placed into each pot and subsequently covered with a thin layer of earth. After 41 days, the following results were obtained.

[12] = system: rats; conditions: os, literature values; cited from earlier work
[13] = Treated surface covered with 1 cm earth layer, 2 kg./ha.
[14] = Treated surface covered with 1 cm earth layer, 4 kg./ha.
[15] = Treated surface covered with 1 cm earth layer, 6 kg./ha.

Q: With `CCC(C)N(C(=O)SCc1ccccc1)C(C)CC` (centres unmarked) [M3432, S-benzyl-N,N-disec.butylthiocarbamate] as the compound, how does the Weeding activity ([1]; Surface, 1 kg./ha.) read?
A: 1/2

Q: And the Weeding activity ([1]; Surface, 2 kg./ha.)?
A: 2

Q: And the Weeding activity ([1]; Surface, 4 kg./ha.)?
A: 3

Q: And the Weeding activity ([1]; Surface, 6 kg./ha.)?
A: 4

Q: What about the Weeding activity [1, 13] of the same compound?
A: 4

Q: And the Weeding activity [1, 14]?
A: 4

Q: And the Weeding activity [1, 15]?
A: 4

Q: What about the Weeding activity ([2]; Surface, 1 kg./ha.) of the same compound?
A: 4

Q: What about the Weeding activity ([2]; Surface, 2 kg./ha.) of the same compound?
A: 4

Q: What about the Weeding activity ([2]; Surface, 6 kg./ha.) of the same compound?
A: 4

Q: What about the Weeding activity [2, 13] of the same compound?
A: 4

Q: And the Weeding activity [2, 14]?
A: 4

Q: And the Weeding activity [2, 15]?
A: 4

Q: And the Weeding activity ([3]; Surface, 1 kg./ha.)?
A: 2/3

Q: And the Weeding activity ([3]; Surface, 2 kg./ha.)?
A: 3

Q: What about the Weeding activity ([3]; Surface, 4 kg./ha.) of the same compound?
A: 3

Q: What about the Weeding activity ([3]; Surface, 6 kg./ha.) of the same compound?
A: 3

Q: What about the Weeding activity [3, 13] of the same compound?
A: 4

Q: What about the Weeding activity [3, 14] of the same compound?
A: 4

Q: What about the Weeding activity [3, 15] of the same compound?
A: 4

Q: And the Main root ([4]; 10 kg./ha.)?
A: 11.3 cm.

Q: And the Secondary roots ([4]; 10 kg./ha.)?
A: 4.4 number per plant

Q: And the Shoot ([4]; 10 kg./ha.)?
A: 19.97 cm.

Q: What about the Sprouted plants ([4]; 10 kg./ha.) of the same compound?
A: 71.1%

Q: And the Main root ([4]; 20 kg./ha.)?
A: 10.6 cm.

Q: And the Secondary roots ([4]; 20 kg./ha.)?
A: 5.1 number per plant

Q: What about the Shoot ([4]; 20 kg./ha.) of the same compound?
A: 20.9 cm.

Q: And the Sprouted plants ([4]; 20 kg./ha.)?
A: 77.7%

Q: What about the Main root ([4]; 30 kg./ha.) of the same compound?
A: 11.1 cm.

Q: And the Secondary roots ([4]; 30 kg./ha.)?
A: 5.4 number per plant

Q: What about the Shoot ([4]; 30 kg./ha.) of the same compound?
A: 23.4 cm.

Q: What about the Sprouted plants ([4]; 30 kg./ha.) of the same compound?
A: 80.0%

Q: What about the LD50 [5] of the same compound?
A: 8000 mg/kg

Q: And the LD50 [6]?
A: 10200 mg/kg

Q: And the Infestation degree ([7]; 4 kg./ha.)?
A: low (low = 0.5-1 plants per m^2)

Q: What about the Infestation degree ([7]; 6 kg./ha.) of the same compound?
A: low (low = 0.5-1 plants per m^2)

Q: And the “Infestation degree, plants per 10 square meters” value ([8]; 4 kg./ha.)?
A: 0.25 no.

Q: And the “Infestation degree, plants per 10 square meters” value ([8]; 6 kg./ha.)?
A: 0.33 no.

Q: What about the Infestation degree ([9]; 4 kg./ha.) of the same compound?
A: low (low = 0.5-1 plants per m^2)

Q: What about the Infestation degree ([9]; 6 kg./ha.) of the same compound?
A: low (low = 0.5-1 plants per m^2)

Q: What about the “Rice tiller dry weight” value ([10]; 3.4 kg./ha.) of the same compound?
A: 254.50 (g.)/m^2 and 331.10 (g.)/m^2 and 301.08 (g.)/m^2 and 373.50 (g.)/m^2 and 332.00 (g.)/m^2

Q: And the Rice tiller number ([10]; 3.4 kg./ha.)?
A: 432 (no.)/m^2 and 430 (no.)/m^2 and 421 (no.)/m^2 and 417 (no.)/m^2 and 392 (no.)/m^2

Q: And the “Rice tiller dry weight, average on 5 testing areas” value ([10]; 3.6 kg./ha.)?
A: 318.44 (g.)/m^2

Q: What about the “Rice tiller number, average on 5 testing areas” value ([10]; 3.6 kg./ha.) of the same compound?
A: 418.4 (no.)/m^2

Q: What about the “Rice tiller dry weight, average on 5 testing areas” value ([10]; 4.0 kg./ha.) of the same compound?
A: 438.01 (g.)/m^2

Q: And the “Rice tiller number, average on 5 testing areas” value ([10]; 4.0 kg./ha.)?
A: 559.0 (no.)/m^2

Q: What about the “Rice tiller dry weight” value ([10]; 4.0 kg./ha.) of the same compound?
A: 473.98 (g.)/m^2 and 316.91 (g.)/m^2 and 484.50 (g.)/m^2 and 423.55 (g.)/m^2 and 491.10 (g.)/m^2

Q: And the Rice tiller number ([10]; 4.0 kg./ha.)?
A: 599 (no.)/m^2 and 440 (no.)/m^2 and 687 (no.)/m^2 and 523 (no.)/m^2 and 546 (no.)/m^2

Q: What about the Main root ([11]; 2.5 kg./ha.) of the same compound?
A: 8.93 cm.

Q: What about the Secondary roots ([11]; 2.5 kg./ha.) of the same compound?
A: 3.90 no.

Q: And the Shoot ([11]; 2.5 kg./ha.)?
A: 17.16 cm.

Q: What about the Stand ([11]; 2.5 kg./ha.) of the same compound?
A: 68.80%

Q: What about the Main root ([11]; 5 kg./ha.) of the same compound?
A: 8.48 cm.

Q: What about the Secondary roots ([11]; 5 kg./ha.) of the same compound?
A: 4.02 no.

Q: And the Shoot ([11]; 5 kg./ha.)?
A: 16.83 cm.

Q: And the Stand ([11]; 5 kg./ha.)?
A: 62.20%

Q: And the Main root ([11]; 10 kg./ha.)?
A: 10.07 cm.

Q: What about the Secondary roots ([11]; 10 kg./ha.) of the same compound?
A: 4.23 no.

Q: And the Shoot ([11]; 10 kg./ha.)?
A: 16.92 cm.

Q: What about the Stand ([11]; 10 kg./ha.) of the same compound?
A: 62.20%

Q: With `CCSC(=O)N1CCCCCC1` [Molinate, ethyl-1-hexamethylene-imino-carbothiolate, reference compound] as the compound, how does the Weeding activity ([1]; Surface, 2 kg./ha.) read?
A: 1/2

Q: And the Weeding activity ([1]; Surface, 4 kg./ha.)?
A: 2

Q: What about the Weeding activity ([1]; Surface, 6 kg./ha.) of the same compound?
A: 3

Q: What about the Weeding activity [1, 13] of the same compound?
A: 3

Q: And the Weeding activity [1, 14]?
A: 4/3

Q: What about the Weeding activity [1, 15] of the same compound?
A: 4/3

Q: What about the Weeding activity ([2]; Surface, 2 kg./ha.) of the same compound?
A: 2

Q: And the Weeding activity ([2]; Surface, 4 kg./ha.)?
A: 4

Q: What about the Weeding activity ([2]; Surface, 6 kg./ha.) of the same compound?
A: 4

Q: And the Weeding activity [2, 13]?
A: 4

Q: What about the Weeding activity [2, 14] of the same compound?
A: 4

Q: What about the Weeding activity [2, 15] of the same compound?
A: 4

Q: What about the Weeding activity ([3]; Surface, 2 kg./ha.) of the same compound?
A: 1

Q: And the Weeding activity ([3]; Surface, 4 kg./ha.)?
A: 3/2

Q: What about the Weeding activity ([3]; Surface, 6 kg./ha.) of the same compound?
A: 4/3

Q: What about the Weeding activity [3, 13] of the same compound?
A: 4

Q: What about the Weeding activity [3, 14] of the same compound?
A: 4

Q: And the Weeding activity [3, 15]?
A: 4

Q: And the “Acute toxicity LD50” value [12]?
A: 500 to 725 mg/kg

Q: What about the Infestation degree ([7]; 4 kg./ha.) of the same compound?
A: moderate (moderate = 1 - 4 plants per m^2)

Q: And the “Infestation degree, plants per 10 square meters” value ([8]; 4 kg./ha.)?
A: 1-2 no.

Q: What about the Infestation degree ([8]; 4 kg./ha., 36 days) of the same compound?
A: almost nil (almost nil = 0.1 plants per m^2)

Q: And the Infestation degree ([9]; 4 kg./ha.)?
A: moderate (moderate = 1 - 4 plants per m^2)
